Data from ChEMBL document CHEMBL1201862, “PubChem BioAssay data set” (2004).
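48-hour exposure; five concentrations; linearly interpolated endpoints. The concentration for 50% growth inhibition is given as GI50.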 Activity calls are given as the source filed them. Rule as the data show it: active = GI50 up to about 1.1 µM and inactive = higher.

Tests used:
Experiment in all cases: NCI tumour cell line growth inhibition, 48 h
T47D = tested on: T47D
Hs-578T = tested on: Hs-578T
TK-10 = tested on: TK-10
NCI-H226 = tested on: NCI-H226
HOP-92 = tested on: HOP-92
SR = tested on: SR
HCT-116 = tested on: HCT-116
HL-60 = tested on: HL-60
UACC-62 = tested on: UACC-62
NCI-H23 = tested on: NCI-H23
K562 = tested on: K562
LOX IMVI = tested on: LOX IMVI
786-0 = tested on: 786-0
SK-MEL-28 = tested on: SK-MEL-28
M14 = tested on: M14
UO-31 = tested on: UO-31
IGROV-1 = tested on: IGROV-1
OVCAR-3 = tested on: OVCAR-3
HT-29 = tested on: HT-29
SNB-75 = tested on: SNB-75
MCF7 = tested on: MCF7
EKVX = tested on: EKVX
MDA-N = tested on: MDA-N
BT-549 = tested on: BT-549
HCT-15 = tested on: HCT-15
SK-MEL-5 = tested on: SK-MEL-5
RPMI-8226 = tested on: RPMI-8226
OVCAR-8 = tested on: OVCAR-8
A549 = tested on: A549
OVCAR-4 = tested on: OVCAR-4
MDA-MB-231 = tested on: MDA-MB-231
CAKI-1 = tested on: CAKI-1
Malme-3M = tested on: Malme-3M
NCI-H522 = tested on: NCI-H522
SNB-19 = tested on: SNB-19
SF-268 = tested on: SF-268
CCRF-CEM = tested on: CCRF-CEM
UACC-257 = tested on: UACC-257
NCI/ADR-RES = tested on: NCI/ADR-RES
RXF 393 = tested on: RXF 393
MOLT-4 = tested on: MOLT-4
HCC 2998 = tested on: HCC 2998
SK-OV-3 = tested on: SK-OV-3
PC-3 = tested on: PC-3
OVCAR-5 = tested on: OVCAR-5
SK-MEL-2 = tested on: SK-MEL-2
DU-145 = tested on: DU-145
KM12 = tested on: KM12
COLO 205 = tested on: COLO 205
ACHN = tested on: ACHN
SF-295 = tested on: SF-295
MDA-MB-435 = tested on: MDA-MB-435
SW-620 = tested on: SW-620
SN12C = tested on: SN12C
NCI-H460 = tested on: NCI-H460
HOP-62 = tested on: HOP-62
U-251 = tested on: U-251
SF-539 = tested on: SF-539

Structure (SMILES): N#CCCC1C(C#N)C2CC1C1C3C=CC(C3)C21 (stereo not drawn)
- GI50 (T47D): > 100 µM (inactive)
- GI50 (Hs-578T): > 100 µM (inactive)
- GI50 (TK-10): > 100 µM (inactive)
- GI50 (NCI-H226): > 100 µM (inactive)
- GI50 (HOP-92): > 100 µM (inactive)
- GI50 (SR): > 100 µM (inactive)
- GI50 (HCT-116): > 100 µM (inactive)
- GI50 (HL-60): > 100 µM (inactive)
- GI50 (UACC-62): > 100 µM (inactive)
- GI50 (NCI-H23): > 100 µM (inactive)
- GI50 (K562): > 100 µM (inactive)
- GI50 (LOX IMVI): > 100 µM (inactive)
- GI50 (786-0): > 100 µM (inactive)
- GI50 (SK-MEL-28): > 100 µM (inactive)
- GI50 (M14): > 100 µM (inactive)
- GI50 (UO-31): > 100 µM (inactive)
- GI50 (IGROV-1): > 100 µM (inactive)
- GI50 (OVCAR-3): > 100 µM (inactive)
- GI50 (HT-29): > 100 µM (inactive)
- GI50 (SNB-75): > 100 µM (inactive)
- GI50 (MCF7): > 100 µM (inactive)
- GI50 (EKVX): > 100 µM (inactive)
- GI50 (MDA-N): > 100 µM (inactive)
- GI50 (BT-549): > 100 µM (inactive)
- GI50 (HCT-15): > 100 µM
- GI50 (SK-MEL-5): > 100 µM (inactive)
- GI50 (RPMI-8226): > 100 µM (inactive)
- GI50 (OVCAR-8): > 100 µM (inactive)
- GI50 (A549): > 100 µM (inactive)
- GI50 (OVCAR-4): > 100 µM (inactive)
- GI50 (MDA-MB-231): > 100 µM (inactive)
- GI50 (CAKI-1): > 100 µM (inactive)
- GI50 (Malme-3M): > 100 µM (inactive)
- GI50 (NCI-H522): > 100 µM (inactive)
- GI50 (SNB-19): > 100 µM (inactive)
- GI50 (SF-268): > 100 µM (inactive)
- GI50 (CCRF-CEM): > 100 µM (inactive)
- GI50 (UACC-257): > 100 µM (inactive)
- GI50 (NCI/ADR-RES): > 100 µM (inactive)
- GI50 (RXF 393): 63.4 µM (inactive)
- GI50 (MOLT-4): > 100 µM (inactive)
- GI50 (HCC 2998): > 100 µM (inactive)
- GI50 (SK-OV-3): > 100 µM (inactive)
- GI50 (PC-3): > 100 µM (inactive)
- GI50 (OVCAR-5): > 100 µM (inactive)
- GI50 (SK-MEL-2): > 100 µM (inactive)
- GI50 (DU-145): > 100 µM (inactive)
- GI50 (KM12): > 100 µM (inactive)
- GI50 (COLO 205): > 100 µM (inactive)
- GI50 (ACHN): > 100 µM (inactive)
- GI50 (SF-295): > 100 µM (inactive)
- GI50 (MDA-MB-435): > 100 µM (inactive)
- GI50 (SW-620): > 100 µM (inactive)

Structure (SMILES): CN(C)c1ccc(/C=N/c2ccc(Oc3ccc(Cl)cc3)c(Cl)c2)cc1
- GI50 (T47D): 16.8 µM (inactive)
- GI50 (Hs-578T): 15.4 µM (inactive)
- GI50 (TK-10): 32.4 µM (inactive)
- GI50 (NCI-H226): 21.6 µM (inactive)
- GI50 (HOP-92): 18.2 µM (inactive)
- GI50 (SR): 10.9 µM (inactive)
- GI50 (SN12C): 21.6 µM (inactive)
- GI50 (HCT-116): 5.2 µM (inactive)
- GI50 (HL-60): 11.7 µM (inactive)
- GI50 (UACC-62): 17.5 µM (inactive)
- GI50 (NCI-H23): 19 µM (inactive)
- GI50 (NCI-H460): 19.5 µM (inactive)
- GI50 (LOX IMVI): 17.9 µM (inactive)
- GI50 (SK-MEL-28): 19.3 µM (inactive)
- GI50 (M14): 28.1 µM (inactive)
- GI50 (UO-31): 10.7 µM (inactive)
- GI50 (IGROV-1): 21.7 µM (inactive)
- GI50 (OVCAR-3): 12.9 µM (inactive)
- GI50 (HT-29): 16.1 µM (inactive)
- GI50 (SNB-75): 13.1 µM (inactive)
- GI50 (MCF7): 42.7 µM (inactive)
- GI50 (EKVX): 17.5 µM (inactive)
- GI50 (MDA-N): 21.7 µM (inactive)
- GI50 (BT-549): 16.6 µM (inactive)
- GI50 (HCT-15): 18.9 µM
- GI50 (SK-MEL-5): 15 µM (inactive)
- GI50 (RPMI-8226): 11.4 µM (inactive)
- GI50 (HOP-62): 18.7 µM (inactive)
- GI50 (OVCAR-8): 17.5 µM (inactive)
- GI50 (A549): 18.7 µM (inactive)
- GI50 (OVCAR-4): 22.1 µM (inactive)
- GI50 (MDA-MB-231): 16.5 µM (inactive)
- GI50 (U-251): 16.9 µM (inactive)
- GI50 (CAKI-1): 21.3 µM (inactive)
- GI50 (Malme-3M): 15.3 µM (inactive)
- GI50 (NCI-H522): 13.8 µM (inactive)
- GI50 (SNB-19): 16.4 µM (inactive)
- GI50 (SF-539): 16.9 µM (inactive)
- GI50 (SF-268): 13.7 µM (inactive)
- GI50 (CCRF-CEM): 10.8 µM (inactive)
- GI50 (UACC-257): 19.8 µM (inactive)
- GI50 (NCI/ADR-RES): 16.2 µM (inactive)
- GI50 (MOLT-4): 18.5 µM (inactive)
- GI50 (HCC 2998): 17.7 µM (inactive)
- GI50 (SK-OV-3): 26.8 µM (inactive)
- GI50 (PC-3): 15.2 µM (inactive)
- GI50 (OVCAR-5): 28.3 µM (inactive)
- GI50 (SK-MEL-2): 14.5 µM (inactive)
- GI50 (DU-145): 27.5 µM (inactive)
- GI50 (KM12): 17.1 µM (inactive)
- GI50 (COLO 205): 22.1 µM (inactive)
- GI50 (ACHN): 28.6 µM (inactive)
- GI50 (SF-295): 24.7 µM (inactive)
- GI50 (MDA-MB-435): 24.2 µM (inactive)
- GI50 (SW-620): 30.3 µM (inactive)
